According to ChEMBL document CHEMBL1122556, “Design, synthesis, and binding characteristics of an opiate receptor mimetic peptide” (J Med Chem, 1984):
pKi: −log10 of the molar value. Residues, ends and D or L forms follow the SMILES beside them. *: point of attachment. Desaminotyrosyl = O=C(CCc1ccc(O)cc1)*; Hydrocinnamoyl = O=C(CCc1ccccc1)*

Test: Compound was evaluated for the binding strength to receptor Mimetic peptide (RMP) at 5 degree celsius, Ki was determined from its potency in displacing [Leu]-enkephalin binding.

| SMILES | pKi |
| --- | --- |
| CSCC[C@H](NC(=O)[C@H](Cc1ccccc1)NC(=O)CNC(=O)CNC(=O)[C@@H](N)Cc1ccc(O)cc1)C(=O)O | 4.31 |
| CC(C)C[C@H](NC(=O)[C@H](Cc1ccccc1)NC(=O)CNC(=O)CNC(=O)[C@H](N)Cc1ccccc1)C(=O)O | 4.02 |
| CC(C)C[C@@H](NC(=O)[C@@H](Cc1ccccc1)NC(=O)CNC(=O)CNC(=O)[C@H](N)Cc1ccc(O)cc1)C(=O)O | 3.40 |
| CC(C)C[C@H](NC(=O)[C@H](Cc1ccccc1)NC(=O)CNC(=O)[C@@H](N)Cc1ccc(O)cc1)C(=O)O | 3.80 |
| N=C(N)NCCC[C@H](NC(=O)[C@H](Cc1ccccc1)NC(=O)[C@@H](N)Cc1cnc[nH]1)C(=O)N[C@@H](Cc1c[nH]c2ccccc12)C(=O)O | 2.23 |
| CC(C)C[C@H](NC(=O)[C@H](Cc1ccccc1)NC(=O)CNC(=O)CNC(=O)CCc1ccc(O)cc1)C(=O)O (Desaminotyrosyl-GGFL-OH) | 3.69 |
| CC(C)C[C@H](NC(=O)[C@H](Cc1ccccc1)NC(=O)CNC(=O)CNC(=O)CCc1ccccc1)C(=O)O (Hydrocinnamoyl-GGFL-OH) | 3.21 |
| C=CCN1CC[C@]23c4c5ccc(O)c4O[C@H]2C(=O)CC[C@@]3(O)[C@H]1C5 [NALOXONE] | 2.13 |
